In PubChem BioAssay AID1745844 (Carcinogenic Potency Database (CPDB), 2022):
Calls of active or inactive are those of the source. The rule behind the calls is not given here.

Tested on: rodent lifetime carcinogenesis bioassay, tumor incidence TD50
Test: carcinogenic potency in animals, long-term in vivo studies, CPDB compilation (AID 1745844)

Work on `CC1SC(C)N(N=O)C(C)S1` (centres undefined) yielded a TD50 (rat, strain Fischer 344, females, by gavage, site: esophagus, lesion: squamous-cell carcinoma, dosed 43 weeks, study length 90 weeks) of 1.63 mg/kg/day, a TD50 (rat, strain Fischer 344, females, by gavage, site: esophagus, lesion: squamous-cell tumor, dosed 43 weeks, study length 90 weeks) of 0.483 mg/kg/day and a TD50 (rat, strain Fischer 344, females, by gavage, site: liver, lesion: cholangioma, dosed 43 weeks, study length 90 weeks) of 3.58 mg/kg/day. For the same compound, the TD50 (rat, strain Fischer 344, females, by gavage, site: liver, lesion: hepatocellular adenoma, dosed 43 weeks, study length 90 weeks) was 2.61 mg/kg/day and the TD50 (rat, strain Fischer 344, females, by gavage, site: tongue, lesion: squamous-cell tumor, dosed 43 weeks, study length 90 weeks) was 1.53 mg/kg/day.
`O=C1OC(=O)c2ccccc21` was tested, and the carcinogen call (mouse, strain B6C3F1, females, in feed, site: any site (literature study), lesion: several types, types named in the paper, dosed 104 weeks, study length 104 weeks) was “negative (inactive)”, the carcinogen call (mouse, strain B6C3F1, males, in feed, site: any site (literature study), lesion: several types, types named in the paper, dosed 104 weeks, study length 104 weeks) was “negative (inactive)” and the TD50 (mouse, strain B6C3F1, males, in feed, site: liver, lesion: hepatocellular adenoma + hepatocellular carcinoma + neoplastic nodule, dosed 104 weeks, study length 104 weeks) was 7460 mg/kg/day. For the same compound, the TD50 (rat, strain Fischer 344, females, in feed, site: any site (literature study), lesion: several types, types named in the paper, dosed 105 weeks, study length 105 weeks) was 4500 mg/kg/day, the TD50 (rat, strain Fischer 344, females, in feed, site: lung, lesion: alveolar/bronchiolar adenoma, dosed 105 weeks, study length 105 weeks) was 6230 mg/kg/day (inactive) and the carcinogen call (rat, strain Fischer 344, males, in feed, site: any site (literature study), lesion: several types, types named in the paper, dosed 105 weeks, study length 105 weeks) was “negative (inactive)”.
In the case of `O=S(=O)(Oc1ccc(Cl)cc1)c1ccc(Cl)cc1`, the carcinogen call (mouse, strain B6AKF1, females, oral dosing, site: any site (literature study), lesion: several types, types named in the paper, dosed 76 weeks, study length 76 weeks) is reported as “negative (inactive)”, the carcinogen call (mouse, strain B6AKF1, females, oral dosing, site: liver, lesion: hepatoma, dosed 76 weeks, study length 76 weeks) is reported as “negative (inactive)” and the carcinogen call (mouse, strain B6AKF1, females, oral dosing, site: lung, lesion: adenoma, dosed 76 weeks, study length 76 weeks) is reported as “negative (inactive)”. The carcinogen call (mouse, strain B6AKF1, males, oral dosing, site: any site (literature study), lesion: several types, types named in the paper, dosed 76 weeks, study length 76 weeks) was “negative (inactive)”, the carcinogen call (mouse, strain B6AKF1, males, oral dosing, site: liver, lesion: hepatoma, dosed 76 weeks, study length 76 weeks) was “negative (inactive)” and the carcinogen call (mouse, strain B6AKF1, males, oral dosing, site: lung, lesion: adenoma, dosed 76 weeks, study length 76 weeks) was “negative (inactive)”. The TD50 (mouse, strain B6C3F1, females, oral dosing, site: any site (literature study), lesion: several types, types named in the paper, dosed 76 weeks, study length 76 weeks) was 931 mg/kg/day (inactive), the TD50 (mouse, strain B6C3F1, females, oral dosing, site: liver, lesion: hepatoma, dosed 76 weeks, study length 76 weeks) was 931 mg/kg/day (inactive) and the carcinogen call (mouse, strain B6C3F1, females, oral dosing, site: lung, lesion: several types, types named in the paper, dosed 76 weeks, study length 76 weeks) was “negative (inactive)”. The TD50 (mouse, strain B6C3F1, males, oral dosing, site: any site (literature study), lesion: several types, types named in the paper, dosed 76 weeks, study length 76 weeks) was 84.5 mg/kg/day (inactive), the TD50 (mouse, strain B6C3F1, males, oral dosing, site: liver, lesion: hepatoma, dosed 76 weeks, study length 76 weeks) was 422 mg/kg/day (inactive) and the TD50 (mouse, strain B6C3F1, males, oral dosing, site: lung, lesion: adenoma, dosed 76 weeks, study length 76 weeks) was 869 mg/kg/day (inactive).
In the case of `CN(N=O)c1ccc(N=O)cc1`, the TD50 (rat, strain CB, males, i.p., site: liver, lesion: hepatoma, dosed 26 weeks, study length 86 weeks) is reported as 1.5 mg/kg/day (inactive) and the TD50 (rat, strain CB, males, i.p., site: peritoneal cavity, lesion: several types, types named in the paper, dosed 26 weeks, study length 86 weeks) is reported as 1.3 mg/kg/day.
With `CN(N=O)C(=O)N[C@@H](C=O)[C@@H](O)[C@H](O)[C@H](O)CO` the TD50 (mouse, strain Swiss, females, i.p., site: any site (literature study), lesion: benign tumor, dosed 26 weeks, study length 78 weeks) was 0.188 mg/kg/day, the TD50 (mouse, strain Swiss, females, i.p., site: any site (literature study), lesion: malignant tumor, dosed 26 weeks, study length 78 weeks) was 6.32 mg/kg/day and the TD50 (mouse, strain Swiss, females, i.p., site: any site (literature study), lesion: several types, types named in the paper, dosed 26 weeks, study length 78 weeks) was 0.486 mg/kg/day. For the same compound, the TD50 (mouse, strain Swiss, females, i.p., site: kidney, lesion: adenoma, dosed 26 weeks, study length 78 weeks) was 1.39 mg/kg/day, the TD50 (mouse, strain Swiss, females, i.p., site: lung, lesion: several types, types named in the paper, dosed 26 weeks, study length 78 weeks) was 0.193 mg/kg/day and the TD50 (mouse, strain Swiss, females, i.p., site: uterus, lesion: sarcoma, dosed 26 weeks, study length 78 weeks) was 13.9 mg/kg/day. The TD50 (mouse, strain Swiss, males, i.p., site: any site (literature study), lesion: benign tumor, dosed 26 weeks, study length 72 weeks) was 0.698 mg/kg/day, the TD50 (mouse, strain Swiss, males, i.p., site: any site (literature study), lesion: malignant tumor, dosed 26 weeks, study length 72 weeks) was 3.53 mg/kg/day and the TD50 (mouse, strain Swiss, males, i.p., site: any site (literature study), lesion: several types, types named in the paper, dosed 26 weeks, study length 72 weeks) was 0.217 mg/kg/day. For the same compound, the TD50 (mouse, strain Swiss, males, i.p., site: kidney, lesion: tubular-cell adenoma, dosed 26 weeks, study length 72 weeks) was 2.44 mg/kg/day, the TD50 (mouse, strain Swiss, males, i.p., site: liver, lesion: several types, types named in the paper, dosed 26 weeks, study length 72 weeks) was 27.3 mg/kg/day and the TD50 (mouse, strain Swiss, males, i.p., site: lung, lesion: several types, types named in the paper, dosed 26 weeks, study length 72 weeks) was 0.462 mg/kg/day. For the same compound, the TD50 (rat, strain Charles River CD (Sprague-Dawley), females, i.p., site: any site (literature study), lesion: malignant tumor, dosed 26 weeks, study length 78 weeks) was 0.363 mg/kg/day, the TD50 (rat, strain Charles River CD (Sprague-Dawley), females, i.p., site: any site (literature study), lesion: several types, types named in the paper, dosed 26 weeks, study length 78 weeks) was 1.14 mg/kg/day and the TD50 (rat, strain Charles River CD (Sprague-Dawley), females, i.p., site: kidney, lesion: several types, types named in the paper, dosed 26 weeks, study length 78 weeks) was 1.27 mg/kg/day. It also gave a TD50 (rat, strain Charles River CD (Sprague-Dawley), females, i.p., site: liver, lesion: cavernous hemangioma, dosed 26 weeks, study length 78 weeks) of 5.63 mg/kg/day, a TD50 (rat, strain Charles River CD (Sprague-Dawley), females, i.p., site: liver, lesion: several types, types named in the paper, dosed 26 weeks, study length 78 weeks) of 4.43 mg/kg/day and a TD50 (rat, strain Charles River CD (Sprague-Dawley), females, i.p., site: mammary gland, lesion: carcinoma, dosed 26 weeks, study length 78 weeks) of 1.41 mg/kg/day. The TD50 (rat, strain Charles River CD (Sprague-Dawley), females, i.p., site: uterus, lesion: sarcoma, dosed 26 weeks, study length 78 weeks) was 2.46 mg/kg/day, the TD50 (rat, strain Charles River CD (Sprague-Dawley), males, i.p., site: any site (literature study), lesion: benign tumor, dosed 26 weeks, study length 78 weeks) was 16.8 mg/kg/day and the TD50 (rat, strain Charles River CD (Sprague-Dawley), males, i.p., site: any site (literature study), lesion: malignant tumor, dosed 26 weeks, study length 78 weeks) was 1.03 mg/kg/day. For the same compound, the TD50 (rat, strain Charles River CD (Sprague-Dawley), males, i.p., site: any site (literature study), lesion: several types, types named in the paper, dosed 26 weeks, study length 78 weeks) was 0.751 mg/kg/day, the TD50 (rat, strain Charles River CD (Sprague-Dawley), males, i.p., site: kidney, lesion: several types, types named in the paper, dosed 26 weeks, study length 78 weeks) was 0.776 mg/kg/day and the TD50 (rat, strain Charles River CD (Sprague-Dawley), males, i.p., site: liver, lesion: liver-cell carcinoma, dosed 26 weeks, study length 78 weeks) was 20.4 mg/kg/day.
